From the supplement of paper PMC10307832

Experiments:
Experiment in all cases: relative viability (nuclei count vs DMSO), 5 days (fraction); higher = more cells survive
Seliciclib + Olaparib = compound: CC[C@H](CO)Nc1nc(NCc2ccccc2)c2ncn(C(C)C)c2n1 [Seliciclib] + O=C(c1cc(Cc2n[nH]c(=O)c3ccccc23)ccc1F)N1CCN(C(=O)C2CC2)CC1 [Olaparib] (partner 8 µM)
Procedure, shortened: (§1)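 Cells from lung cancer lines were seeded into 1536-well plates and, one day later, dosed by pin tool. Treatments were either a single drug or a fixed dose of an anchor drug with five library-drug doses (not always all listed) in √10 steps. After 5 days, nuclei were stained in a one-step fixation (final 0.05% Triton X-100, 1% formaldehyde, 1 ug/ml Hoechst) and counted on 4× images, and relative viability is the treated-to-vehicle nuclei ratio, as the median of duplicate plates.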

Seliciclib + Decitabine = compound: CC[C@H](CO)Nc1nc(NCc2ccccc2)c2ncn(C(C)C)c2n1 [Seliciclib] + Nc1ncn([C@H]2C[C@H](O)[C@@H](CO)O2)c(=O)n1 [Decitabine] (partner 2 µM)
Procedure, shortened: as §1

Seliciclib + AZD7762 = compound: CC[C@H](CO)Nc1nc(NCc2ccccc2)c2ncn(C(C)C)c2n1 [Seliciclib] + NC(=O)Nc1cc(-c2cccc(F)c2)sc1C(=O)N[C@H]1CCCNC1 [AZD7762] (partner 0.2 µM)
Procedure, shortened: as §1

Seliciclib + Lapatinib = compound: CC[C@H](CO)Nc1nc(NCc2ccccc2)c2ncn(C(C)C)c2n1 [Seliciclib] + CS(=O)(=O)CCNCc1ccc(-c2ccc3ncnc(Nc4ccc(OCc5cccc(F)c5)c(Cl)c4)c3c2)o1 [Lapatinib] (partner 2 µM)
Procedure, shortened: as §1

Cell Line	relative viability (Seliciclib + Olaparib; first compound 0.08 µM)	relative viability (Seliciclib + Olaparib; first compound 0.253 µM)	relative viability (Seliciclib + Olaparib; first compound 0.8 µM)	relative viability (Seliciclib + Olaparib; first compound 2.53 µM)	relative viability (Seliciclib + Olaparib; first compound 8 µM)	relative viability (Seliciclib + Decitabine; first compound 0.08 µM)	relative viability (Seliciclib + Decitabine; first compound 0.253 µM)	relative viability (Seliciclib + Decitabine; first compound 0.8 µM)	relative viability (Seliciclib + Decitabine; first compound 2.53 µM)	relative viability (Seliciclib + Decitabine; first compound 8 µM)	relative viability (Seliciclib + AZD7762; first compound 0.08 µM)	relative viability (Seliciclib + AZD7762; first compound 0.253 µM)	relative viability (Seliciclib + AZD7762; first compound 0.8 µM)	relative viability (Seliciclib + AZD7762; first compound 2.53 µM)	relative viability (Seliciclib + AZD7762; first compound 8 µM)	relative viability (Seliciclib + Lapatinib; first compound 0.08 µM)	relative viability (Seliciclib + Lapatinib; first compound 0.253 µM)	relative viability (Seliciclib + Lapatinib; first compound 0.8 µM)	relative viability (Seliciclib + Lapatinib; first compound 2.53 µM)	relative viability (Seliciclib + Lapatinib; first compound 8 µM)
HCC-78	0.693	0.906	0.695	0.604	0.499	0.706	0.659	0.757	0.641	0.538	0.689	0.66	0.62	0.525	0.51	0.931	1.39	0.881	0.559	0.479
HCC-366	0.335	0.422	0.35	0.456	0.234	0.357	0.297	0.333	0.414	0.297	0.291	0.274	0.388	0.409	0.481	1.01	1.15	0.987	1.22	0.863
HCC-827	0.623	0.66	0.644	0.612	0.624	0.337	0.36	0.327	0.287	0.273	0.211	0.19	0.217	0.209	0.172	0.208	0.246	0.203	0.225	0.188
HOP-62	0.445	0.398	0.299	0.264	0.391	0.199	0.177	0.223	0.235	0.253	0.63	0.407	0.394	0.923	0.822	0.937	0.931	1.04	1.06	0.864
LC-2-ad	0.64	0.759	0.681	0.794	0.638	0.752	0.95	0.717	0.812	0.721	0.839	0.882	0.791	0.741	0.853	0.948	1.15	0.895	0.829	0.857
LCLC-97TM1	0.453	0.47	0.322	0.381	0.265	0.237	0.187	0.189	0.231	0.201	0.232	0.258	0.432		0.392	1.12	1.71	1.36		0.364
LK-2	0.817	0.723	0.739	0.398	0.718	0.359	0.276	0.309	0.166	0.263	0.414	0.379	0.584	0.187	0.293	0.946	0.91	0.871	0.747	0.452
LOU-NH91		0.93	0.891	0.925	0.782		0.795	0.784	0.785	0.693		0.715	0.794	0.702	0.569	0.743	0.682	0.729	0.6	0.681
LU99A	0.252	0.264	0.284	0.279	0.278	0.914	0.777	0.978	0.837	0.739	0.338	0.321	0.491	0.317	0.49	1.01	0.923	1.02	0.666	0.537
LXF-289	1.06	1.12	1.03	1.04	0.772	0.348	0.299	0.403	0.39	0.39	1.09	1.33	1.06	1.16	0.993	0.908	1.04	0.806	0.891	0.791
NCI-H23	0.346	0.31	0.377	0.269	0.262	0.278	0.293	0.316	0.288	0.268	0.25	0.292	0.424	0.258	0.468	0.97	1.08	1.19	0.657	0.851
NCI-H322M	0.722	0.969	0.561	0.758	0.749	0.782	0.715	0.715	0.668	0.614	0.594	0.646	0.637	0.692	0.907	0.67	0.641	0.509	0.443	0.457
NCI-H358	0.588	0.595	0.546	0.561	0.346	0.204	0.216	0.221	0.193	0.176	0.55	0.577	0.235	0.462	0.434	0.429	0.5	0.407	0.305	0.253
NCI-H460	0.496	0.517	0.472	0.458	0.359	0.455	0.57	0.446	0.591	0.388	0.567	0.752	0.71	1.06	0.773	0.895	1.04	0.922	1.34	0.826
NCI-H596	0.724		0.695	0.781	0.764	0.951		0.961	1.03	0.828	1.12		1.17	1.19	0.993	0.969	0.831	1.1	1.21	0.939
NCI-H647	0.526	0.433	0.512	0.649	0.313	0.314	0.235	0.562	0.453	0.452	0.676	0.554	0.496	0.554	0.48	1.25	1.11	1.07	1.28	1.01
NCI-H650	0.354	0.368	0.417	0.305	0.37	0.333	0.299	0.306	0.295	0.332	1.15	0.863	1.26	0.947	1.07	0.953	1.12	1.1		0.765
